Measured values from the NIST ThermoML archive (doi:10.1021/acs.jced.7b00564).

Experiment: xn = mol fraction of the nth substance listed
Details: Gas, isochoric method

F/C=C/C(F)(F)F [trans-1,3,3,3-tetrafluoropropene] + CC(C)C
Details	specific volume [m3/kg]
303.15 K, 259.6 kPa, x2 = 0.516	0.1062
303.15 K, 267.9 kPa, x2 = 0.29	0.0895
303.15 K, 304.9 kPa, x2 = 0.685	0.1004
303.15 K, 305.5 kPa, x2 = 0.428	0.0844
303.15 K, 321 kPa, x2 = 0.612	0.089
303.15 K, 367.4 kPa, x2 = 0.755	0.0856
308.15 K, 264.5 kPa, x2 = 0.516	0.1062
308.15 K, 273 kPa, x2 = 0.29	0.0895
308.15 K, 310.7 kPa, x2 = 0.685	0.1004
308.15 K, 311.3 kPa, x2 = 0.428	0.0844
308.15 K, 327.2 kPa, x2 = 0.612	0.089
308.15 K, 374.9 kPa, x2 = 0.755	0.0856
313.15 K, 269.2 kPa, x2 = 0.516	0.1062
313.15 K, 277.9 kPa, x2 = 0.29	0.0896
313.15 K, 316.5 kPa, x2 = 0.685	0.1005
313.15 K, 317.1 kPa, x2 = 0.428	0.0844
313.15 K, 333.4 kPa, x2 = 0.612	0.0891
313.15 K, 382.2 kPa, x2 = 0.755	0.0857
318.15 K, 274 kPa, x2 = 0.516	0.1063
318.15 K, 282.8 kPa, x2 = 0.29	0.0896
318.15 K, 322.2 kPa, x2 = 0.685	0.1005
318.15 K, 322.8 kPa, x2 = 0.428	0.0845
318.15 K, 339.5 kPa, x2 = 0.612	0.0891
318.15 K, 389.5 kPa, x2 = 0.755	0.0857
323.15 K, 278.8 kPa, x2 = 0.516	0.1063
323.15 K, 287.8 kPa, x2 = 0.29	0.0896
323.15 K, 328 kPa, x2 = 0.685	0.1005
323.15 K, 328.5 kPa, x2 = 0.428	0.0845
323.15 K, 345.6 kPa, x2 = 0.612	0.0891
323.15 K, 396.8 kPa, x2 = 0.755	0.0857
328.15 K, 283.5 kPa, x2 = 0.516	0.1063
328.15 K, 292.7 kPa, x2 = 0.29	0.0896
328.15 K, 333.7 kPa, x2 = 0.685	0.1005
328.15 K, 334.2 kPa, x2 = 0.428	0.0845
328.15 K, 351.7 kPa, x2 = 0.612	0.0891
328.15 K, 404 kPa, x2 = 0.755	0.0857
333.15 K, 288.2 kPa, x2 = 0.516	0.1063
333.15 K, 297.6 kPa, x2 = 0.29	0.0896
333.15 K, 339.5 kPa, x2 = 0.685	0.1005
333.15 K, 339.9 kPa, x2 = 0.428	0.0845
333.15 K, 357.8 kPa, x2 = 0.612	0.0891
333.15 K, 411.2 kPa, x2 = 0.755	0.0857
338.15 K, 292.9 kPa, x2 = 0.516	0.1064
338.15 K, 302.5 kPa, x2 = 0.29	0.0897
338.15 K, 345.1 kPa, x2 = 0.685	0.1006
338.15 K, 345.6 kPa, x2 = 0.428	0.0845
338.15 K, 363.8 kPa, x2 = 0.612	0.0892
338.15 K, 418.3 kPa, x2 = 0.755	0.0857
343.15 K, 297.6 kPa, x2 = 0.516	0.1064
343.15 K, 307.4 kPa, x2 = 0.29	0.0897
343.15 K, 350.8 kPa, x2 = 0.685	0.1006
343.15 K, 351.2 kPa, x2 = 0.428	0.0846
343.15 K, 369.8 kPa, x2 = 0.612	0.0892
343.15 K, 425.4 kPa, x2 = 0.755	0.0858
348.15 K, 302.3 kPa, x2 = 0.516	0.1064
348.15 K, 312.2 kPa, x2 = 0.29	0.0897
348.15 K, 356.5 kPa, x2 = 0.685	0.1006
348.15 K, 356.9 kPa, x2 = 0.428	0.0846
348.15 K, 375.8 kPa, x2 = 0.612	0.0892
348.15 K, 432.4 kPa, x2 = 0.755	0.0858
353.15 K, 307 kPa, x2 = 0.516	0.1064
353.15 K, 317.1 kPa, x2 = 0.29	0.0897
353.15 K, 362.1 kPa, x2 = 0.685	0.1006
353.15 K, 362.6 kPa, x2 = 0.428	0.0846
353.15 K, 381.8 kPa, x2 = 0.612	0.0892
353.15 K, 439.4 kPa, x2 = 0.755	0.0858
358.15 K, 311.7 kPa, x2 = 0.516	0.1064
358.15 K, 321.9 kPa, x2 = 0.29	0.0897
358.15 K, 367.7 kPa, x2 = 0.685	0.1007
358.15 K, 368.2 kPa, x2 = 0.428	0.0846
358.15 K, 387.8 kPa, x2 = 0.612	0.0892
358.15 K, 446.5 kPa, x2 = 0.755	0.0858
363.15 K, 316.4 kPa, x2 = 0.516	0.1065
363.15 K, 326.8 kPa, x2 = 0.29	0.0898
363.15 K, 373.3 kPa, x2 = 0.685	0.1007
363.15 K, 373.9 kPa, x2 = 0.428	0.0846
363.15 K, 393.7 kPa, x2 = 0.612	0.0892
363.15 K, 453.5 kPa, x2 = 0.755	0.0858
368.15 K, 321.1 kPa, x2 = 0.516	0.1065
368.15 K, 331.6 kPa, x2 = 0.29	0.0898
368.15 K, 379 kPa, x2 = 0.685	0.1007
368.15 K, 379.5 kPa, x2 = 0.428	0.0846
368.15 K, 399.7 kPa, x2 = 0.612	0.0893
368.15 K, 460.5 kPa, x2 = 0.755	0.0859
373.15 K, 325.7 kPa, x2 = 0.516	0.1065
373.15 K, 336.5 kPa, x2 = 0.29	0.0898
373.15 K, 384.7 kPa, x2 = 0.685	0.1007
373.15 K, 385.1 kPa, x2 = 0.428	0.0847
373.15 K, 405.6 kPa, x2 = 0.612	0.0893
373.15 K, 467.6 kPa, x2 = 0.755	0.0859
378.15 K, 330.4 kPa, x2 = 0.516	0.1065
378.15 K, 341.4 kPa, x2 = 0.29	0.0898
378.15 K, 390.3 kPa, x2 = 0.685	0.1007
378.15 K, 390.7 kPa, x2 = 0.428	0.0847
378.15 K, 411.7 kPa, x2 = 0.612	0.0893
378.15 K, 474.5 kPa, x2 = 0.755	0.0859
383.15 K, 335.1 kPa, x2 = 0.516	0.1066
383.15 K, 346.2 kPa, x2 = 0.29	0.0898
383.15 K, 395.9 kPa, x2 = 0.685	0.1008
383.15 K, 396.3 kPa, x2 = 0.428	0.0847
383.15 K, 417.6 kPa, x2 = 0.612	0.0893
383.15 K, 481.6 kPa, x2 = 0.755	0.0859
